# Source: ChEMBL document CHEMBL3885881, “DrugMatrix”
# Species on record: Rattus norvegicus
# Experiment: DrugMatrix - Regimen: Daily Repeat
# Format: toxicity, organism-based, Sprague-Dawley
# Design: regimen Daily Repeat, gender Male, age 6-8 weeks
# Conditions: in vivo, po, 1169 mg/kg, route oral GAVAGE, dose level High, vehicle .5 % CMC; for ABSOLUTE BASOPHIL / ABSOLUTE EOSINOPHIL / ABSOLUTE LYMPHOCYTE / ABSOLUTE MONOCYTE / ABSOLUTE SEGMENTED NEUTROPHIL / BASOPHIL / EOSINOPHIL / ERYTHROCYTE COUNT / HEMATOCRIT / HEMOGLOBIN / LEUKOCYTE COUNT / LYMPHOCYTE / MEAN CORPUSCULAR HEMOGLOBIN / MEAN CORPUSCULAR HEMOGLOBIN CONCENTRATION / MEAN CORPUSCULAR VOLUME / MONOCYTE / NEUTROPHIL / NUCLEATED RED BLOOD CELLS / PLATELET COUNT: tissue Blood; for ALANINE AMINOTRANSFERASE / ALBUMIN / ALKALINE PHOSPHATASE / ASPARTATE AMINOTRANSFERASE / BLOOD UREA NITROGEN / CARBON DIOXIDE / CHLORIDE / CHOLESTEROL / CREATINE PHOSPHOKINASE / CREATININE / LACTATE DEHYDROGENASE / LIPASE / PHOSPHORUS / SODIUM / TOTAL BILIRUBIN / TOTAL PROTEIN / URIC ACID: tissue Plasma
smiles,measurement,setting,value
Nc1nc(O)c2ncn(COC(CO)CO)c2n1 [GANCICLOVIR],ABSOLUTE BASOPHIL,"72 h, time 3 day",0 CELLS/uL
same,ABSOLUTE EOSINOPHIL,"72 h, time 3 day",180.33 CELLS/uL
same,ABSOLUTE LYMPHOCYTE,"72 h, time 3 day",12632.33 CELLS/uL
same,ABSOLUTE MONOCYTE,"72 h, time 3 day",432 CELLS/uL
same,ABSOLUTE SEGMENTED NEUTROPHIL,"72 h, time 3 day",1155.33 CELLS/uL
same,BASOPHIL,"72 h, time 3 day",0%
same,EOSINOPHIL,"72 h, time 3 day",1.67%
same,ERYTHROCYTE COUNT,"72 h, time 3 day",5.52 x10E6/uL
same,HEMATOCRIT,"72 h, time 3 day",33.9%
same,HEMOGLOBIN,"72 h, time 3 day",12.9 G/DL
same,LEUKOCYTE COUNT,"72 h, time 3 day",14.4 x10E3/uL
same,LYMPHOCYTE,"72 h, time 3 day",87%
same,MEAN CORPUSCULAR HEMOGLOBIN,"72 h, time 3 day",23.43 pg
same,MEAN CORPUSCULAR HEMOGLOBIN CONCENTRATION,"72 h, time 3 day",38.07 G/DL
same,MEAN CORPUSCULAR VOLUME,"72 h, time 3 day",61.57 fL
same,MONOCYTE,"72 h, time 3 day",3%
same,NEUTROPHIL,"72 h, time 3 day",8.33%
same,NUCLEATED RED BLOOD CELLS,"72 h, time 3 day",0.33 /100WBC
same,PLATELET COUNT,"72 h, time 3 day",1439 x10E3/uL
same,ALANINE AMINOTRANSFERASE,"72 h, time 3 day",45.33 u/L
same,ALBUMIN,"72 h, time 3 day",4.3 G/DL
same,ALKALINE PHOSPHATASE,"72 h, time 3 day",313.33 u/L
same,ASPARTATE AMINOTRANSFERASE,"72 h, time 3 day",76 u/L
same,BLOOD UREA NITROGEN,"72 h, time 3 day",19 mg/dL
same,CARBON DIOXIDE,"72 h, time 3 day",27.33 mmol/L
same,CHLORIDE,"72 h, time 3 day",103.67 MEQ/L
same,CHOLESTEROL,"72 h, time 3 day",79.67 mg/dL
same,CREATINE PHOSPHOKINASE,"72 h, time 3 day",222.33 u/L
same,CREATININE,"72 h, time 3 day",0.23 mg/dL
same,LACTATE DEHYDROGENASE,"72 h, time 3 day",239 u/L
same,LIPASE,"72 h, time 3 day",9 u/L
same,PHOSPHORUS,"72 h, time 3 day",12.3 mg/dL
same,SODIUM,"72 h, time 3 day",145.57 MEQ/L
same,TOTAL BILIRUBIN,"72 h, time 3 day",0.2 mg/dL
same,TOTAL PROTEIN,"72 h, time 3 day",5.93 G/DL
same,URIC ACID,"72 h, time 3 day",1.27 mg/dL
same,ABSOLUTE BASOPHIL,"120 h, time 5 day",0 CELLS/uL
same,ABSOLUTE EOSINOPHIL,"120 h, time 5 day",164.33 CELLS/uL
same,ABSOLUTE LYMPHOCYTE,"120 h, time 5 day",13318 CELLS/uL
same,ABSOLUTE MONOCYTE,"120 h, time 5 day",365.67 CELLS/uL
same,ABSOLUTE SEGMENTED NEUTROPHIL,"120 h, time 5 day",1652 CELLS/uL
same,BASOPHIL,"120 h, time 5 day",0%
same,EOSINOPHIL,"120 h, time 5 day",1%
same,ERYTHROCYTE COUNT,"120 h, time 5 day",5.49 x10E6/uL
same,HEMATOCRIT,"120 h, time 5 day",34.33%
same,HEMOGLOBIN,"120 h, time 5 day",13.13 G/DL
same,LEUKOCYTE COUNT,"120 h, time 5 day",15.5 x10E3/uL
same,LYMPHOCYTE,"120 h, time 5 day",86%
same,MEAN CORPUSCULAR HEMOGLOBIN,"120 h, time 5 day",23.93 pg
same,MEAN CORPUSCULAR HEMOGLOBIN CONCENTRATION,"120 h, time 5 day",38.27 G/DL
same,MEAN CORPUSCULAR VOLUME,"120 h, time 5 day",62.6 fL
same,MONOCYTE,"120 h, time 5 day",2.33%
same,NEUTROPHIL,"120 h, time 5 day",10.67%
same,NUCLEATED RED BLOOD CELLS,"120 h, time 5 day",0.33 /100WBC
same,PLATELET COUNT,"120 h, time 5 day",1216.67 x10E3/uL
same,ALANINE AMINOTRANSFERASE,"120 h, time 5 day",42.33 u/L
same,ALBUMIN,"120 h, time 5 day",4.2 G/DL
same,ALKALINE PHOSPHATASE,"120 h, time 5 day",345.33 u/L
same,ASPARTATE AMINOTRANSFERASE,"120 h, time 5 day",78.67 u/L
same,BLOOD UREA NITROGEN,"120 h, time 5 day",19.67 mg/dL
same,CARBON DIOXIDE,"120 h, time 5 day",29.33 mmol/L
same,CHLORIDE,"120 h, time 5 day",102.33 MEQ/L
same,CHOLESTEROL,"120 h, time 5 day",65.33 mg/dL
same,CREATINE PHOSPHOKINASE,"120 h, time 5 day",220 u/L
same,CREATININE,"120 h, time 5 day",0.18 mg/dL
same,LACTATE DEHYDROGENASE,"120 h, time 5 day",181 u/L
same,LIPASE,"120 h, time 5 day",8.67 u/L
same,PHOSPHORUS,"120 h, time 5 day",11.73 mg/dL
same,SODIUM,"120 h, time 5 day",145.77 MEQ/L
same,TOTAL BILIRUBIN,"120 h, time 5 day",0.13 mg/dL
same,TOTAL PROTEIN,"120 h, time 5 day",5.9 G/DL
same,URIC ACID,"120 h, time 5 day",1.43 mg/dL
